The record followed here is US10669289B2, “Boronic acid derivatives” (MERCK PATENT GMBH, priority 2014, dated 2020).

Assay [1] concerns the target human immuno proteasome (LMP7) (Homo sapiens (Human), UniProt P28062). In words: Determination of LMP7 activity (fluorescence intensity assay, Suc-LLVY-AMC). The assay is classed as biochemical. On the procedure: Determination of LMP7 Activity:
Measurement of LMP7 inhibition is performed in 384 well format based on fluorescence intensity assay.
(§1) Purified human immuno proteasome (0.25 nM) and serial diluted compounds in DMSO (range of concentrations from 30 μM to 15 pM) or controls are incubated for 20 minutes or 120 minutes (long incubation) at 25° C. in assay buffer containing 50 mM Tris pH 7.4, 0.03% SDS, 1 mM EDTA and 1% DMSO. The reaction is initiated by the addition of the fluorogenic peptide substrate, Suc-LLVY-AMC (Bachem 1-1395), at a concentration of 40 μM. After 60 minutes of incubation at 37° C., fluorescence intensity is measured at λex=350 nm and λem=450 nm with a fluorescence reader (Perkin Elmer Envision reader or equivalent).
(§2) Unless indicated otherwise the results are obtained after incubation for 20 minutes.

In assay [2] the target is human constitutive proteasome (Beta5) (Homo sapiens (Human), UniProt P28074). In words: Determination of Beta5 activity (fluorescence intensity assay, Suc-LLVY-AMC). Format: biochemical. As for the experimental part:
Determination of Beta5 Activity:
Measurement of Beta5 inhibition is performed in 384 well format based on fluorescence intensity assay.
as §1, with “constitutive” for “immuno”, “(1.25” for “(0.25”
as §2

The mark [3] stands for this setting: LMP7 versus Beta5, long incubation (120 min).
[4] abbreviates: LMP7 versus Beta5, incubation for 20 minutes.

Each structure is given as a SMILES string. Where only a bound is given, the exact number is not on record here.

Turning to `C=CC(=O)NCC(=O)N[C@@H](Cc1ccc(C)c(C)c1)B(O)O` [Compound No. 88, [(1R)-2-(3,4-dimethylphenyl)-1-[[2-(prop-2-enoylamino)acetyl]amino]ethyl]boronic Acid], the “Selectivity LMP7 vs Beta5” value in assay [1] (setting [3]) is “+++++ (Selectivity ≥ 150)”. Moreover, the figures for the IC50 in assay [1] (long incubation (120 min)) and in assay [2] (long incubation (120 min)) were under 50 nM and 500 to 5000 nM, respectively.

As for `C=CC(=O)N(C)CC(=O)N[C@@H](Cc1ccc(C)c(C)c1)B(O)O` [Compound No. 16, [(1R)-2-(3,4-dimethylphenyl)-1-[[2-[methyl(prop-2-enoyl)amino]-acetyl]amino]ethyl]boronic Acid], the “Selectivity LMP7 vs Beta5” value in assay [1] (setting [4]) is on record as “+++++ (Selectivity ≥ 150)”. Further, the values for the IC50 in assay [1] (incubation for 20 minutes) and in assay [2] (incubation for 20 minutes) were under 50 nM and over 5000 nM, respectively.

Regarding `C=CC(=O)N(CC(=O)N[C@@H](Cc1ccc(C)cc1C)B(O)O)c1ccccc1` [Compound No. 26, [(1R)-2-(2,4-dimethylphenyl)-1-[[2-(N-prop-2-enoylanilino)acetyl]-amino]ethyl]boronic Acid], the “Selectivity LMP7 vs Beta5” value in assay [1] (setting [4]) is listed as “+++++ (Selectivity ≥ 150)”. The IC50 in assay [1] (incubation for 20 minutes) is under 50 nM; in assay [2] (incubation for 20 minutes), 500 to 5000 nM.

With `C=CC(=O)N1CCC[C@H]1C(=O)N[C@@H](Cc1ccc(C)cc1C)B(O)O` [Compound No. 58, [(1R)-2-(2,4-dimethylphenyl)-1-[[(2S)-1-prop-2-enoylpyrrolidine-2-carbonyl]amino]ethyl]boronic Acid], the “Selectivity LMP7 vs Beta5” value in assay [1] (setting [4]) is given as “++ (50 ≤ Selectivity < 70)”. Further, the figures for the IC50 in assay [1] (incubation for 20 minutes) and in assay [2] (incubation for 20 minutes) were 500 to 5000 nM and over 5000 nM, respectively.

In the case of `C/C=C(\C)C(=O)N(CC)CC(=O)N[C@@H](Cc1ccc(C)cc1C)B(O)O` [Compound No. 22, [(1R)-2-(2,4-dimethylphenyl)-1-[[2-[ethyl-[(E)-2-methylbut-2-enoyl]-amino]acetyl]amino]ethyl]boronic Acid], in assay [1] (setting [4]), the “Selectivity LMP7 vs Beta5” value is “++ (50 ≤ Selectivity < 70)”. The results for the IC50 in assay [1] (incubation for 20 minutes) and in assay [2] (incubation for 20 minutes) were 50 to 500 nM and over 5000 nM, respectively.

In the case of `C/C=C\C(=O)N(CC)CC(=O)N[C@@H](Cc1ccc(C)cc1C)B(O)O` [Compound No. 18, [(1R)-1-[[2-[[(Z)-but-2-enoyl]-ethyl-amino]acetyl]amino]-2-(2,4-dimethylphenyl)ethyl]boronic Acid], the “Selectivity LMP7 vs Beta5” value in assay [1] (setting [4]) is “+++ (70 ≤ 100)”. Also, the IC50 lay in the range of 50 to 500 nM in assay [1] (incubation for 20 minutes) and 500 to 5000 nM in assay [2] (incubation for 20 minutes).

On to `C=CC(=O)N(C)CC(=O)N[C@@H](Cc1ccsc1)B(O)O` [Compound No. 75, [(1R)-1-[[2-[methyl(prop-2-enoyl)amino]acetyl]amino]-2-(3-thienyl)ethyl]boronic Acid], for which the “Selectivity LMP7 vs Beta5” value in assay [1] (setting [3]) is “+++++ (Selectivity ≥ 150)”. Besides, the IC50 was 50 to 500 nM in assay [1] (long incubation (120 min)) and over 5000 nM in assay [2] (long incubation (120 min)).

For `C=CS(=O)(=O)N(C)CC(=O)N[C@@H](Cc1ccc(C)c(C)c1)B(O)O` [Compound No. 10, [(1R)-2-(3,4-dimethylphenyl)-1-[[2-[methyl(vinylsulfonyl)amino]-acetyl]amino]ethyl]boronic Acid], the “Selectivity LMP7 vs Beta5” value in assay [1] (setting [4]) is given as “+++++ (Selectivity ≥ 150)”. Moreover, the IC50 was under 50 nM in assay [1] (incubation for 20 minutes) and 500 to 5000 nM in assay [2] (incubation for 20 minutes).

As for `C=CC(=O)N(CC(=O)N[C@@H](Cc1ccc(C)cc1C)B(O)O)c1cccc(F)c1` [Compound No. 4, [(1R)-2-(2,4-dimethylphenyl)-1-[[2-(3-fluoro-N-prop-2-enoyl-anilino)acetyl]amino]ethyl]boronic Acid], the “Selectivity LMP7 vs Beta5” value in assay [1] (setting [4]) is given as “+++++ (Selectivity ≥ 150)”. The IC50 in assay [1] (incubation for 20 minutes) was under 50 nM; in assay [2] (incubation for 20 minutes), 500 to 5000 nM.

For the compound `C=CC(=O)N(CC(=O)N[C@@H](C[C@H]1COc2c(C)cccc21)B(O)O)c1ccccc1F` [Compound No. 91, [(1R)-1-[[2-(2-fluoro-N-prop-2-enoyl-anilino)acetyl]amino]-2-[(3R)-7-methyl-2,3-dihydrobenzofuran-3-yl]ethyl]boronic Acid], in assay [1] (setting [4]), the “Selectivity LMP7 vs Beta5” value is given as “+++++ (Selectivity ≥ 150)”. For the same compound, the IC50 is 50 to 500 nM in assay [1] (incubation for 20 minutes) and over 5000 nM in assay [2] (incubation for 20 minutes).

As for `C=CC(=O)N(CC)CC(=O)N[C@@H](Cc1ccc(C)cc1)B(O)O` [Compound No. 31, [(1R)-1-[[2-[ethyl(prop-2-enoyl)amino]acetyl]amino]-2-(p-tolyl)ethyl]-boronic Acid], the “Selectivity LMP7 vs Beta5” value in assay [1] (setting [4]) is recorded as “++++ (100 ≤ Selectivity < 150)”. Also, the IC50 is under 50 nM in assay [1] (incubation for 20 minutes) and 500 to 5000 nM in assay [2] (incubation for 20 minutes).

In the case of `C=CC(=O)N(c1ccccc1)[C@H](C)C(=O)N[C@@H](Cc1ccc(C)c(C)c1)B(O)O` [Compound No. 47, [(1R)-2-(3,4-dimethylphenyl)-1-[[(2R)-2-(N-prop-2-enoylanilino)propanoyl]amino]ethyl]boronic Acid], the “Selectivity LMP7 vs Beta5” value in assay [1] (setting [3]) is listed as “+++++ (Selectivity ≥ 150)”. In addition, the IC50 is 50 to 500 nM in assay [1] (long incubation (120 min)) and over 5000 nM in assay [2] (long incubation (120 min)).

As to `C=CC(=O)N(CC(=O)N[C@@H](Cc1ccc(C)cc1C)B(O)O)CC(F)F` [Compound No. 84, [(1R)-1-[[2-[2,2-difluoroethyl(prop-2-enoyl)amino]acetyl]-amino]-2-(2,4-dimethylphenyl)ethyl]boronic Acid], the “Selectivity LMP7 vs Beta5” value in assay [1] (setting [3]) is recorded as “+++++ (Selectivity ≥ 150)”. The half-maximal inhibitory concentration (IC50) was 50 to 500 nM in assay [1] (long incubation (120 min)) and over 5000 nM in assay [2] (long incubation (120 min)).

Regarding `C=CC(=O)N(CC)CC(=O)N[C@@H](Cc1ccc(Cl)cc1Cl)B(O)O` [Compound No. 40, [(1R)-2-(2,4-dichlorophenyl)-1-[[2-[ethyl(prop-2-enoyl)amino]acetyl]amino]ethyl]boronic Acid], the “Selectivity LMP7 vs Beta5” value in assay [1] (setting [3]) is listed as “+++++ (Selectivity ≥ 150)”. Also, the IC50 was 50 to 500 nM in assay [1] (long incubation (120 min)) and over 5000 nM in assay [2] (long incubation (120 min)).

Take `CCN(CC(=O)N[C@@H](Cc1ccc(C)cc1C)B(O)O)C(=O)/C=C/CN(C)C` [Compound No. 105, [(1R)-1-[[2-[[(E)-4-(dimethylamino)but-2-enoyl]-ethyl-amino]-acetyl]amino]-2-(2,4-dimethylphenyl)ethyl]boronic Acid]: the “Selectivity LMP7 vs Beta5” value in assay [1] (setting [3]) is “+++++ (Selectivity ≥ 150)”. The IC50 in assay [1] (long incubation (120 min)) is under 50 nM; in assay [2] (long incubation (120 min)) it was over 5000 nM.

`C=CC(=O)N(CC(=O)N[C@@H](Cc1coc2ccccc12)B(O)O)c1ccccc1F` [Compound No. 86, [(1R)-2-(benzofuran-3-yl)-1-[[2-(2-fluoro-N-prop-2-enoyl-anilino)acetyl]amino]ethyl]boronic Acid]: the “Selectivity LMP7 vs Beta5” value in assay [1] (setting [3]) is on record as “+++++ (Selectivity ≥ 150)”. In addition, the IC50 was under 50 nM in assay [1] (long incubation (120 min)) and 50 to 500 nM in assay [2] (long incubation (120 min)).

For `C=CC(=O)N(CC(=O)N[C@@H](C[C@@H]1COc2ccccc21)B(O)O)c1ccccc1F` [Compound No. 100, [(1R)-2-[(3S)-2,3-dihydrobenzofuran-3-yl]-1-[[2-(2-fluoro-N-prop-2-enoyl-anilino)acetyl]amino]ethyl]boronic Acid], the “Selectivity LMP7 vs Beta5” value in assay [1] (setting [3]) was “+++++ (Selectivity ≥ 150)”. Moreover, the results for the IC50 in assay [1] (long incubation (120 min)) and in assay [2] (long incubation (120 min)) were under 50 nM and 500 to 5000 nM, respectively.

`C=CC(=O)N(C)CC(=O)N[C@@H](Cc1ccc(C)cc1C)B(O)O` [Compound No. 33, [(1R)-2-(2,4-dimethylphenyl)-1-[[2-[methyl(prop-2-enoyl)amino]-acetyl]amino]ethyl]boronic Acid]: the “Selectivity LMP7 vs Beta5” value in assay [1] (setting [4]) is given as “+++++ (Selectivity ≥ 150)”. The IC50 in assay [1] (incubation for 20 minutes) is under 50 nM; in assay [2] (incubation for 20 minutes), over 5000 nM.

Regarding `C=CC(=O)N(CC(=O)N[C@@H](Cc1ccsc1)B(O)O)c1ccccc1F` [Compound No. 78, [(1R)-1-[[2-(2-fluoro-N-prop-2-enoyl-anilino)acetyl]amino]-2-(3-thienyl)ethyl]boronic Acid], the “Selectivity LMP7 vs Beta5” value in assay [1] (setting [3]) is on record as “+++++ (Selectivity ≥ 150)”. In addition, the IC50 is under 50 nM in assay [1] (long incubation (120 min)) and over 5000 nM in assay [2] (long incubation (120 min)).

In the case of `CCN(CC(=O)N[C@@H](Cc1ccc(C)cc1C)B(O)O)C(=O)/C=C/C(=O)OC` [Compound No. 50, [(1R)-2-(2,4-dimethylphenyl)-1-[[2-[ethyl-[(E)-4-methoxy-4-oxo-but-2-enoyl]amino]acetyl]amino]ethyl]boronic Acid], in assay [1] (setting [3]), the “Selectivity LMP7 vs Beta5” value was “+++++ (Selectivity ≥ 150)”. In addition, the figures for the IC50 in assay [1] (long incubation (120 min)) and in assay [2] (long incubation (120 min)) were under 50 nM and over 5000 nM, respectively.

As for `C=CC(=O)N1CCC[C@@H]1C(=O)N[C@@H](Cc1ccc(Cl)cc1Cl)B(O)O` [Compound No. 54, [(1R)-2-(2,4-dichlorophenyl)-1-[[(2R)-1-prop-2-enoylpyrrolidine-2-carbonyl]amino]ethyl]boronic Acid], the “Selectivity LMP7 vs Beta5” value in assay [1] (setting [3]) is “++ (50 ≤ Selectivity < 70)”. The IC50 in assay [1] (long incubation (120 min)) was 500 to 5000 nM; in assay [2] (long incubation (120 min)), over 5000 nM.

With `C=C(C)C(=O)N(CC)CC(=O)N[C@@H](Cc1ccc(C)cc1C)B(O)O` [Compound No. 32, [(1R)-2-(2,4-dimethylphenyl)-1-[[2-[ethyl(2-methylprop-2-enoyl)-amino]acetyl]amino]ethyl]boronic Acid], the “Selectivity LMP7 vs Beta5” value in assay [1] (setting [4]) is reported as “+++ (70 ≤ 100)”. Moreover, the IC50 was 50 to 500 nM in assay [1] (incubation for 20 minutes) and over 5000 nM in assay [2] (incubation for 20 minutes).
